Here are results for three molecules from PubChem BioAssay (NCI).

Each structure is given as a SMILES string.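 Assay format: 96-well plates, 48-hour exposure. GI50 = concentration required for 50% inhibition of growth. TGI: concentration producing complete growth inhibition.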

Test systems include COLO 205 colon; SK-MEL-2 melanoma; NCI-H23 lung; HL-60(TB) leukemia; HCT-116 colon; LOX IMVI melanoma; DU-145 prostate; HOP-62 NSCLC; HCC-2998 colon; MCF7 breast.
What all share (assay): growth of human tumour cells (NCI), 48 h

Consider `CC1=C(CCC(C)N(C)Cc2ccc(OCCCN3CCCC3)cc2)C(C)(C)CCC1` (stereo not given), for which the GI50 in the experiment on COLO 205 colon is 1.56 µM; in the experiment on SK-MEL-2 melanoma, 2.96 µM; in the experiment on NCI-H23 lung it was 10.4 µM; in the experiment on HL-60(TB) leukemia, 3.87 µM; with HCT-116 colon, 2.82 µM; with LOX IMVI melanoma it was 1.66 µM. The GI50 was 10.8 µM in the experiment with DU-145 prostate, 3.54 µM with HOP-62 NSCLC, 1.5 µM in the experiment with HCC-2998 colon and 1.63 µM in the experiment on MCF7 breast. Further, the TGI worked out at 3.42 µM in the experiment on COLO 205 colon; 7.49 µM in the experiment on SK-MEL-2 melanoma; 24.9 µM in the experiment on NCI-H23 lung; 20.4 µM in the experiment on HL-60(TB) leukemia; 12.1 µM with HCT-116 colon; 3.18 µM with LOX IMVI melanoma. Moreover, the TGI with DU-145 prostate was 23.4 µM; in the experiment on HOP-62 NSCLC, 17.5 µM; in the experiment on HCC-2998 colon, 4 µM; with MCF7 breast it was 3.65 µM.

As to `N#C/C(=C\c1c(-c2ccccc2)[nH]c2ccccc12)S(=O)(=O)c1ccccc1`, the GI50 in the experiment with COLO 205 colon was 1.38 µM; in the experiment on SK-MEL-2 melanoma, 12.5 µM; in the experiment with NCI-H23 lung it was 4.26 µM; with HL-60(TB) leukemia, 1.27 µM; in the experiment with HCT-116 colon, 1.72 µM; with LOX IMVI melanoma, 4.47 µM. Moreover, the GI50 in the experiment with DU-145 prostate is 2.4 µM; in the experiment with HOP-62 NSCLC, 8.06 µM; in the experiment on HCC-2998 colon, 10.9 µM; in the experiment on MCF7 breast it was 2.15 µM. In addition, the TGI with COLO 205 colon is 17 µM; in the experiment on SK-MEL-2 melanoma, 45.3 µM; in the experiment on NCI-H23 lung, more than 58.5 µM; in the experiment on HL-60(TB) leukemia, 5.34 µM; with HCT-116 colon, more than 76.6 µM; with LOX IMVI melanoma, 25.5 µM. For the same molecule, the TGI in the experiment with DU-145 prostate is 20.1 µM; in the experiment on HOP-62 NSCLC it was more than 100 µM; in the experiment with HCC-2998 colon it was 34.3 µM; with MCF7 breast, 18.4 µM.

For `N=C(N)c1ccc(N2CCCN(c3ccc(C(=N)N)cc3)CC2)cc1`, the GI50 with COLO 205 colon is 31.8 µM; in the experiment with SK-MEL-2 melanoma, more than 100 µM; in the experiment with NCI-H23 lung, 74.5 µM; with HL-60(TB) leukemia it was more than 100 µM; in the experiment on HCT-116 colon it was more than 100 µM; in the experiment with LOX IMVI melanoma, 56.1 µM. Also, the GI50 in the experiment with DU-145 prostate is 46.7 µM; in the experiment with HOP-62 NSCLC, 61.6 µM; in the experiment with HCC-2998 colon it was more than 100 µM; in the experiment on MCF7 breast it was 52.3 µM. For the same molecule, the TGI with COLO 205 colon, in the experiment with SK-MEL-2 melanoma, with NCI-H23 lung, in the experiment with HL-60(TB) leukemia, in the experiment with HCT-116 colon and with LOX IMVI melanoma was more than 100 µM throughout. Besides, the TGI in the experiment on DU-145 prostate, in the experiment with HOP-62 NSCLC, in the experiment on HCC-2998 colon and in the experiment on MCF7 breast was more than 100 µM in each case.
